Reference: PubChem BioAssay AID1259407 (Chemical Carcinogenesis Research Information System (CCRIS), 2018)
Active and inactive are the calls of the source. The rule behind the calls is not given here.

Tested on: CCRIS mutagenicity, Ames/micronucleus/aberration tests
Assay: CCRIS mutagenicity studies

## COS(C)(=O)=O
End Point: IN VITRO MICRONUCLEUS, Test System: CHINESE HAMSTER OVARY CELLS, Metabolic Activation: NONE
  mutagenic call: active; positive
End Point: IN VITRO MICRONUCLEUS, Test System: CHL/IU CELLS, Metabolic Activation: NONE
  mutagenic call: active; positive
End Point: IN VITRO MICRONUCLEUS, Test System: CHO CELLS, Metabolic Activation: RAT, LIVER, S-9, AROCLOR 1254
  mutagenic call: active; positive
End Point: IN VITRO MICRONUCLEUS, Test System: HUMAN FIBROBLASTS VH25 CELLS, Metabolic Activation: NONE
  mutagenic call: active; positive
End Point: IN VITRO MICRONUCLEUS, Test System: MOUSE LYMPHOMA L5178Y CELLS, Metabolic Activation: NONE
  mutagenic call: active; positive
End Point: IN VIVO MICRONUCLEUS, Test System: BONE MARROW POLYCHROMATIC ERYTHROCYTES, Species: MOUSE, Strain/Sex: SWISS/FEMALE, Route: IP
  mutagenic call: active; positive
End Point: IN VIVO MICRONUCLEUS, Test System: HEPATOCYTES, Species: RAT, Strain/Sex: FISHER 344 OR SD/MALE, Route: ORAL OR IP
  mutagenic call: inactive; negative
End Point: IN VIVO MICRONUCLEUS, Test System: PERIPHERAL BLOOD RETICULOCYTES, Species: RAT, Strain/Sex: FISHER 344 OR SD/MALE, Route: ORAL OR IP
  mutagenic call: active; positive
End Point: In vitro micronucleus, Test System: Chinese hamster ovary (CHO) cells, Metabolic Activation: None
  mutagenic call: active; positive (lycopene (10, 25 and 50 um) significantly reduced the number of micron
End Point: In vitro micronucleus, Test System: Chinese hamster ovary (CHO-WBL) cells, Metabolic Activation: None
  mutagenic call: active; positive (p<0.01)
Test System: AMES SALMONELLA TYPHIMURIUM, Strain/Indicator: TA97, Metabolic Activation: NONE, Method: STANDARD PLATE
  mutagenic call: active; positive
Test System: AMES SALMONELLA TYPHIMURIUM, Strain/Indicator: TA97, Metabolic Activation: RAT, LIVER, S-9, AROCLOR 1254, Method: STANDARD PLATE
  mutagenic call: inactive; negative
Test System: AMES SALMONELLA TYPHIMURIUM, Strain/Indicator: TA98, Metabolic Activation: NONE, Method: STANDARD PLATE
  mutagenic call: inactive; negative
Test System: AMES SALMONELLA TYPHIMURIUM, Strain/Indicator: TA98, Metabolic Activation: RAT, LIVER, S-9, AROCLOR 1254, Method: STANDARD PLATE
  mutagenic call: inactive; negative
Test System: AMES SALMONELLA TYPHIMURIUM, Strain/Indicator: TA100, Metabolic Activation: NONE, Method: STANDARD PLATE
  mutagenic call: active; positive
Test System: AMES SALMONELLA TYPHIMURIUM, Strain/Indicator: TA100, Metabolic Activation: RAT, LIVER, S-9, AROCLOR 1254, Method: STANDARD PLATE
  mutagenic call: inactive; negative
Test System: AMES SALMONELLA TYPHIMURIUM, Strain/Indicator: TA1535, Metabolic Activation: NONE, Method: STANDARD PLATE
  mutagenic call: active; positive
Test System: AMES SALMONELLA TYPHIMURIUM, Strain/Indicator: YG7100, Metabolic Activation: NONE, Method: PREINCUBATION
  mutagenic call: inactive; negative
Test System: AMES SALMONELLA TYPHIMURIUM, Strain/Indicator: YG7104, Metabolic Activation: NONE, Method: PREINCUBATION
  mutagenic call: active; positive
Test System: AMES SALMONELLA TYPHIMURIUM, Strain/Indicator: YG7108, Metabolic Activation: NONE, Method: PREINCUBATION
  mutagenic call: active; positive
Test System: AMES SALMONELLA TYPHIMURIUM, Strain/Indicator: YG7112, Metabolic Activation: NONE, Method: PREINCUBATION
  mutagenic call: active; positive
Test System: AMES SALMONELLA TYPHIMURIUM, Strain/Indicator: YG7113, Metabolic Activation: NONE, Method: PREINCUBATION
  mutagenic call: active; positive
Test System: AMES SALMONELLA TYPHIMURIUM, Strain/Indicator: YG7119, Metabolic Activation: NONE, Method: PREINCUBATION
  mutagenic call: active; positive
Test System: CHINESE HAMSTER OVARY, Strain/Indicator: CHO-K1-BH4 (HGPRT)/6-THIOGUANINE, Metabolic Activation: NONE, Method: SUSPENSION/PLATE
  mutagenic call: active; positive
Test System: CHINESE HAMSTER OVARY, Strain/Indicator: CHO-K1-BH4 (HGPRT), Metabolic Activation: NONE, Method: MONOLAYER
  mutagenic call: active; positive
Test System: CHINESE HAMSTER OVARY, Strain/Indicator: CHO-K1-BH4 (HGPRT), Metabolic Activation: NONE, Method: SUSPENSION/PLATE
  mutagenic call: active; positive
Test System: CHINESE HAMSTER V-79, Strain/Indicator: V-79/6-THIOGUANINE, Metabolic Activation: NONE, Method: FLASK ASSAY
  mutagenic call: active; positive
Test System: CHINESE HAMSTER V-79, Strain/Indicator: V-79/6-THIOGUANINE, Metabolic Activation: NONE, Method: STANDARD PLATE
  mutagenic call: active; positive
Test System: CHINESE HAMSTER V-79, Strain/Indicator: V-79/6-THIOGUANINE, Metabolic Activation: NONE, Method: SUSPENSION/PLATE
  mutagenic call: active; positive
Test System: CHINESE HAMSTER V-79, Strain/Indicator: V-79/8-AZAGUANINE, Metabolic Activation: NONE, Method: STANDARD PLATE
  mutagenic call: active; positive
Test System: CHINESE HAMSTER V-79, Strain/Indicator: V-79/OUABAIN, Metabolic Activation: NONE, Method: STANDARD PLATE
  mutagenic call: active; positive
Test System: CHINESE HAMSTER V-79, Strain/Indicator: V-79/OUABAIN, Metabolic Activation: NONE, Method: SUSPENSION/PLATE
  mutagenic call: inactive; negative
Test System: CHO/HGPRT, Strain/Indicator: CHO-K1-BH4, Metabolic Activation: NONE, Method: STANDARD PLATE
  mutagenic call: active; positive
Test System: E. COLI, Strain/Indicator: TK701 (PKM101), Metabolic Activation: NONE, Method: STANDARD PLATE
  mutagenic call: active; positive
Test System: E. COLI, Strain/Indicator: TK701, Metabolic Activation: NONE, Method: STANDARD PLATE
  mutagenic call: active; positive
Test System: E. COLI, Strain/Indicator: TK702 (PKM101), Metabolic Activation: NONE, Method: STANDARD PLATE
  mutagenic call: active; positive
Test System: E. COLI, Strain/Indicator: TK702, Metabolic Activation: NONE, Method: STANDARD PLATE
  mutagenic call: inactive; negative
Test System: E. COLI, Strain/Indicator: WP2, Metabolic Activation: NONE, Method: FLUCTUATION
  mutagenic call: active; positive
Test System: E. COLI, Strain/Indicator: WP2, Metabolic Activation: NONE, Method: PREINCUBATION
  mutagenic call: active; positive
Test System: E. COLI, Strain/Indicator: WP2, Metabolic Activation: NONE, Method: STANDARD PLATE
  mutagenic call: active; positive
Test System: E. COLI, Strain/Indicator: WP2 UVRA, Metabolic Activation: HAMSTER, LIVER, S-9, AROCLOR 1254, Method: STANDARD PLATE
  mutagenic call: active; positive
Test System: E. COLI, Strain/Indicator: WP2 UVRA, Metabolic Activation: HAMSTER, LIVER, S-9, Method: STANDARD PLATE
  mutagenic call: active; positive
Test System: E. COLI, Strain/Indicator: WP2 UVRA, Metabolic Activation: MOUSE, LIVER, S-9, AROCLOR 1254, Method: STANDARD PLATE
  mutagenic call: active; positive
Test System: E. COLI, Strain/Indicator: WP2 UVRA, Metabolic Activation: MOUSE, LIVER, S-9, Method: STANDARD PLATE
  mutagenic call: active; positive
Test System: E. COLI, Strain/Indicator: WP2 UVRA, Metabolic Activation: NONE, Method: FLUCTUATION
  mutagenic call: active; positive
Test System: E. COLI, Strain/Indicator: WP2 UVRA, Metabolic Activation: NONE, Method: PREINCUBATION
  mutagenic call: active; positive
Test System: E. COLI, Strain/Indicator: WP2 UVRA, Metabolic Activation: RAT, LIVER, S-9, AROCLOR 1254, Method: STANDARD PLATE
  mutagenic call: active; positive
Test System: E. COLI, Strain/Indicator: WP2 UVRA, Metabolic Activation: RAT, LIVER, S-9, Method: STANDARD PLATE
  mutagenic call: active; positive
Test System: MOUSE LYMPHOMA, Strain/Indicator: L5178Y (TK+/TK-), Metabolic Activation: NONE, Method: SUSPENSION/PLATE
  mutagenic call: active; positive
Test System: MOUSE LYMPHOMA, Strain/Indicator: L5178Y (TK+/TK-), Metabolic Activation: RAT, LIVER, S-9, AROCLOR 1254, Method: SUSPENSION/PLATE
  mutagenic call: active; positive
Test System: UDS HUMAN CELLS, Strain/Indicator: THY INCORP (NON-S-PHASE), Metabolic Activation: NONE, Method: AUTORADIOGRAPHY
  mutagenic call: active; positive
Test System: UDS HUMAN CELLS, Strain/Indicator: THY INCORP (NON-S-PHASE), Metabolic Activation: NONE, Method: LIQUID SCINTILLATION COUNTING
  mutagenic call: active; positive
Test System: UDS HUMAN KERATINOCYTES, Strain/Indicator: THY INCORP, Metabolic Activation: NONE, Method: AUTORADIOGRAPHY
  mutagenic call: active; positive
Test System: UDS HUMAN LYMPHOCYTES, Strain/Indicator: THY INCORP (NON-S-PHASE), Metabolic Activation: NONE, Method: LIQUID SCINTILLATION COUNTING
  mutagenic call: active; positive
Test System: UDS MONKEY HEPATOCYTES, Strain/Indicator: THY INCORP, Metabolic Activation: AROCLOR 1254, Method: AUTORADIOGRAPHY
  mutagenic call: active; positive
Test System: UDS MONKEY HEPATOCYTES, Strain/Indicator: THY INCORP, Metabolic Activation: NONE, Method: AUTORADIOGRAPHY
  mutagenic call: active; positive
Test System: UDS RAT HEPATOCYTES, Strain/Indicator: BROMODEOXYURIDINE INCORP, Metabolic Activation: NONE, Method: FLOW CYTOMETRIC ANALYSIS
  mutagenic call: active; positive
Test System: UDS RAT HEPATOCYTES, Strain/Indicator: THY INCORP, Metabolic Activation: NONE, Method: AUTORADIOGRAPHY
  mutagenic call: active; positive
Test System: UDS RAT PACHYTENE SPERMATOCYTES, Strain/Indicator: THY INCORP, Metabolic Activation: NONE, Method: LIQUID SCINTILLATION COUNTING
  mutagenic call: active; positive
Test System: UDS RODENT CELLS, Strain/Indicator: THY INCORP (NON-S-PHASE), Metabolic Activation: NONE, Method: AUTORADIOGRAPHY
  mutagenic call: active; positive
Test System: UDS RODENT CELLS, Strain/Indicator: THY INCORP (NON-S-PHASE), Metabolic Activation: NONE, Method: LIQUID SCINTILLATION COUNTING
  mutagenic call: active; positive
Test System: UDS RODENT HEPATOCYTES, Strain/Indicator: THY INCORP (NON-S-PHASE), Method: AUTORADIOGRAPHY
  mutagenic call: active; positive
Test System: UDS RODENT HEPATOCYTES, Strain/Indicator: THY INCORP (NON-S-PHASE), Method: LIQUID SCINTILLATION COUNTING
  mutagenic call: active; positive
Test System: UDS RODENT PRIMARY CELLS, Strain/Indicator: THY INCORP (NON-S-PHASE), Metabolic Activation: NONE, Method: LIQUID SCINTILLATION COUNTING
  mutagenic call: active; positive
Test System: UDS, Strain/Indicator: HEPG2/THYMIDINE INCORPORATION, Metabolic Activation: NONE, Method: AUTORADIOGRAPHY
  mutagenic call: active; positive
